Reference: patent US20230219904A1 (SYNGENTA CROP PROTECTION AG, priority 2020, published 2023)

Tests used:
Format in all cases: in vivo
Settings in all cases: evaluated after 13 days
[1] = test system: Abutilon theophrasti (ABUTH); assay: Pre-emergence herbicidal glasshouse test (Table B1)
Experimental: (§1) Seeds of a variety of test species are sown in standard soil in pots (Lolium perenne (LOLPE), Amaranthus retoflexus (AMARE), Abutilon theophrasti (ABUTH), Setaria faberi (SETFA), Echinochloa crus-galh (ECHCG), Ipomoea hederacea (IPOHE)). After cultivation for one day (pre-emergence) or after 8 days cultivation (post-emergence) under controlled conditions in a glasshouse (at 24/16° C., day/night; 14 hours light; 65% humidity), the plants are sprayed with an aqueous spray solution derived from the formulation of the technical active ingredient in acetone/water (50:50) solution containing 0.5% Tween 20 (polyoxyethelyene sorbitan monolaurate, CAS RN 9005-64-5). Compounds are applied at 500 g/h unless otherwise indicated. The test plants are then grown in a glasshouse under controlled conditions in a glasshouse (at 24/16° C., day/night; 14 hours light; 65% humidity) and watered twice daily. After 13 days for pre and post-emergence, the test is evaluated for the percentage damage caused to the plant. The biological activities are shown in the following table on a five-point scale (5=80-100%; 4=60-79%; 3=40-59%; 2=20-39%; 1=0-19%).

[2] = test system: Amaranthus retoflexus (AMARE); assay: as above
Experimental: as §1

[3] = test system: Echinochloa crus-galh (ECHCG); assay: as above
Experimental: as §1

[4] = test system: Ipomoea hederacea (IPOHE); assay: as above
Experimental: as §1

Setaria faberi (SETFA) [5] = assay: as above
Experimental: as §1

[6] = test system: Amaranthus retoflexus (AMARE); assay: Post-emergence herbicidal glasshouse test (Table B1)
Experimental: as §1

[7] = test system: Echinochloa crus-galh (ECHCG); assay: as above
Experimental: as §1

[8] = test system: Ipomoea hederacea (IPOHE); assay: as above
Experimental: as §1

Setaria faberi (SETFA) [9] = assay: as above
Experimental: as §1

| Structure (SMILES) | PRE Application ABUTH, percentage damage on five-point scale ([1]; applied at 125 g/ha) | PRE Application AMARE, percentage damage on five-point scale ([2]; applied at 125 g/ha) | PRE Application ECHCG, percentage damage on five-point scale ([3]; applied at 125 g/ha) | PRE Application IPOHE, percentage damage on five-point scale ([4]; applied at 125 g/ha) | PRE Application SETFA, percentage damage on five-point scale (Setaria faberi (SETFA) [5]; applied at 125 g/ha) | POST Application AMARE, percentage damage on five-point scale ([6]; applied at 125 g/ha) | POST Application ECHCG, percentage damage on five-point scale ([7]; applied at 125 g/ha) | POST Application IPOHE, percentage damage on five-point scale ([8]; applied at 125 g/ha) | POST Application SETFA, percentage damage on five-point scale (Setaria faberi (SETFA) [9]; applied at 125 g/ha) | PRE Application ABUTH, percentage damage on five-point scale ([1]; applied at 500 g/h) | PRE Application AMARE, percentage damage on five-point scale ([2]; applied at 500 g/h) | PRE Application ECHCG, percentage damage on five-point scale ([3]; applied at 500 g/h) | PRE Application IPOHE, percentage damage on five-point scale ([4]; applied) | PRE Application SETFA, percentage damage on five-point scale (Setaria faberi (SETFA) [5]; applied at 500 g/h) | POST Application AMARE, percentage damage on five-point scale ([6]; applied at 500 g/h) | POST Application ECHCG, percentage damage on five-point scale ([7]; applied at 500 g/h) | POST Application IPOHE, percentage damage on five-point scale ([8]; applied at 500 g/h) | POST Application SETFA, percentage damage on five-point scale (Setaria faberi (SETFA) [9]; applied at 500 g/h) |
| --- | --- | --- | --- | --- | --- | --- | --- | --- | --- | --- | --- | --- | --- | --- | --- | --- | --- | --- |
| CCC(=O)N(C)c1c(OC(F)F)ccc(C(=O)Nc2nnnn2CC)c1Cl [Compound 1.097] | 5 (5=80-100%) | 5 (5=80-100%) | 5 (5=80-100%) | 5 (5=80-100%) | 4 (4=60-79%) | 4 (4=60-79%) | 4 (4=60-79%) | 4 (4=60-79%) | 5 (5=80-100%) | – | – | – | – | – | – | – | – | – |
| CCC(C)C(=O)Nc1c(OC(F)(F)F)ccc(C(=O)Nc2nnnn2CC)c1Cl (stereo not drawn) [Compound 1.076] | 5 (5=80-100%) | 5 (5=80-100%) | 5 (5=80-100%) | 5 (5=80-100%) | 5 (5=80-100%) | 4 (4=60-79%) | 5 (5=80-100%) | 4 (4=60-79%) | 4 (4=60-79%) | – | – | – | – | – | – | – | – | – |
| Cc1c(C(F)F)c(C(=O)Nc2c(OC(F)F)ccc(C(=O)Nc3nnnn3C)c2Cl)nn1C [Compound 1.052] | 5 (5=80-100%) | 5 (5=80-100%) | 5 (5=80-100%) | 4 (4=60-79%) | 5 (5=80-100%) | 5 (5=80-100%) | 4 (4=60-79%) | 4 (4=60-79%) | 5 (5=80-100%) | – | – | – | – | – | – | – | – | – |
| CCC(=O)N(CC)c1c(OC(F)F)ccc(C(=O)Nc2nnnn2C)c1C(F)(F)F [Compound 1.091] | 5 (5=80-100%) | 5 (5=80-100%) | 5 (5=80-100%) | 3 (3=40-59%) | 4 (4=60-79%) | 4 (4=60-79%) | 5 (5=80-100%) | 3 (3=40-59%) | 4 (4=60-79%) | – | – | – | – | – | – | – | – | – |
| Cn1nnnc1NC(=O)c1ccc(OC(F)(F)F)c(NC(=O)C(F)F)c1Cl [Compound 1.059] | 5 (5=80-100%) | 5 (5=80-100%) | 4 (4=60-79%) | 3 (3=40-59%) | 1 (1=0-19%) | 5 (5=80-100%) | 5 (5=80-100%) | 3 (3=40-59%) | 4 (4=60-79%) | – | – | – | – | – | – | – | – | – |
| CCn1nnnc1NC(=O)c1ccc(OC(F)(F)F)c(NC(=O)c2ncccc2F)c1Cl [Compound 1.094] | – | – | – | – | – | – | – | – | – | 1 (1=0-19%) | 5 (5=80-100%) | 1 (1=0-19%) | 1 (1=0-19%) | 1 (1=0-19%) | 5 (5=80-100%) | 5 (5=80-100%) | 5 (5=80-100%) | 5 (5=80-100%) |
| CCC(=O)N(CC)c1c(OC(F)F)ccc(C(=O)Nc2nnnn2CC)c1Cl [Compound 1.095] | 5 (5=80-100%) | 5 (5=80-100%) | 5 (5=80-100%) | 4 (4=60-79%) | 4 (4=60-79%) | 5 (5=80-100%) | 5 (5=80-100%) | 4 (4=60-79%) | 5 (5=80-100%) | – | – | – | – | – | – | – | – | – |
| CCC(=O)Nc1c(OC(F)(F)F)ccc(C(=O)Nc2nnnn2CC)c1C [Compound 1.079] | 5 (5=80-100%) | 5 (5=80-100%) | 5 (5=80-100%) | 4 (4=60-79%) | 4 (4=60-79%) | 4 (4=60-79%) | 5 (5=80-100%) | 4 (4=60-79%) | 4 (4=60-79%) | – | – | – | – | – | – | – | – | – |
| CCn1nnnc1NC(=O)c1ccc(OC(F)(F)F)c(NC(=O)C(C)(F)F)c1Cl [Compound 1.060] | 5 (5=80-100%) | 5 (5=80-100%) | 4 (4=60-79%) | 3 (3=40-59%) | 4 (4=60-79%) | 5 (5=80-100%) | 4 (4=60-79%) | 4 (4=60-79%) | 5 (5=80-100%) | – | – | – | – | – | – | – | – | – |
| Cn1nnnc1NC(=O)c1ccc(OC(F)F)c(NC(=O)c2ncc(C(F)(F)F)cc2Cl)c1Cl [Compound 1.081] | 5 (5=80-100%) | 5 (5=80-100%) | 1 (1=0-19%) | 1 (1=0-19%) | 1 (1=0-19%) | 4 (4=60-79%) | 3 (3=40-59%) | 4 (4=60-79%) | 3 (3=40-59%) | – | – | – | – | – | – | – | – | – |
| CCOCC(=O)Nc1c(OC(F)(F)F)ccc(C(=O)Nc2nnnn2CC)c1Cl [Compound 1.074] | 5 (5=80-100%) | 5 (5=80-100%) | 4 (4=60-79%) | 5 (5=80-100%) | 4 (4=60-79%) | 5 (5=80-100%) | 5 (5=80-100%) | 5 (5=80-100%) | 5 (5=80-100%) | – | – | – | – | – | – | – | – | – |
